Molecules are shown by their SMILES. Read-outs that look alike come from different tables or passages of the source.

The test system of series [1] is A549 human lung adenocarcinoma cells. In words: MTT test, cytotoxicity on A549 cells. The format is cell-based. The settings on record: triplicate, read-out: IC50 A549 cell line. As to the method: (§1) A549 and L929 cell lines were purchased from American Type Culture Collection (Manassas, VA, USA). Cells were cultured, and drug treatments were performed as previously explained.[46]
(§2) MTT assay was conducted as previously described[47] with slight modifications.[48] Cisplatin was used as a positive control. The assay was performed in triplicate. Half-maximal inhibitory concentration (IC50) data (μM) were expressed as mean ± SD.

The subject of series [2] is L929 mouse embryonic fibroblast cells. The experiment in a line: MTT test, cytotoxicity on L929 cells. In kind it is cell-based. The note with it: mean ± SD, triplicate, read-out: IC50 L929 cell line. As to the method: as §1, §2
The subject of another series is A549 cells. The experiment in a line: Annexin V FITC/PI flow cytometric analysis of apoptosis. The settings on record: 24 h, each agent at its IC50 (3a 91.35, 3e 176.23, 3g 46.60, 3i 83.59, cisplatin 23.89 μM). (In general: A flow cytometer gives signals particle by particle.)
A further series relates to Akt. The experiment in a line: Akt Colorimetric In-Cell ELISA, Akt inhibition in A549 cells. In kind it is cell-based, human. The note with it: 24 h; for IC50: A549 cell line, mean ± SD, triplicate, read-out: Akt inhibitory effect IC50. As to the method:
The assay was performed in triplicate. IC50 data (μM) were expressed as mean ± SD.
On the technique in general: In an ELISA, binding on a coated surface is turned into a signal by an enzyme label.

In the case of `CCN(CC)c1ccc(C=NNC(=O)CSc2nc3cc(Cl)ccc3o2)cc1` [Compound 3b, N′-(4-Diethylaminobenzylidene)-2-[(5-chlorobenzoxazol-2-yl)thio]acetohydrazide], the melting point – broadly, the temperature, or range, at which the solid turns liquid – was 172 to 173 °C. The IC50 – broadly, the concentration that inhibits the measured activity by half – in series [1] (Homo sapiens, A549, mean ± SD) amounted to 410 ± 220 µM. For the same compound, in series [2], the 50% inhibitory concentration (IC50) was over 500 µM.
For the compound `N.N.[Cl][Pt][Cl]` [Cisplatin, reference compound], in the series with A549 cells, the “early apoptosis (%)” value worked out at 3.61%, the “late apoptosis (%)” value is listed as 3.14% and the “necrosis (%)” value was found to be 0.98%. Also, the IC50 in series [1] (mean ± SD) was 23.9 ± 2.71 µM. In addition, the half-maximal inhibitory concentration (IC50) in the series with Akt stood at 8.09 ± 0.63 µM.
For `O=C(CSc1nc2cc(Cl)ccc2o1)NN=Cc1ccc(N2CCCCC2)cc1` [Compound 3e, N′-[4-(Piperidin-1-yl)benzylidene]-2-[(5-chlorobenzoxazol-2-yl)thio]acetohydrazide], in the series with A549 cells, the “early apoptosis (%)” value came to 3.26%, the “late apoptosis (%)” value was 1.76% and the “necrosis (%)” value amounted to 3.79%. Moreover, in series [1] (Homo sapiens, A549, mean ± SD), the IC50 was found to be 176 ± 56.5 µM. The IC50 in series [2] was over 500 µM. The IC50 in the series on Akt stood at 106 ± 53.7 µM.
With `CCn1c(-c2nonc2N)nc2c(C#CC(C)(C)O)ncc(OC[C@H]3CCCNC3)c21` [GSK690693, reference compound], the IC50 in the series on Akt came to 5.93 ± 1.2 µM.
`O=C(CSc1nc2cc(Cl)ccc2o1)NN=Cc1ccc(N2CCOCC2)cc1` [Compound 3f, N′-[4-(Morpholin-4-yl)benzylidene]-2-[(5-chlorobenzoxazol-2-yl)thio]acetohydrazide] displayed a melting point of 209 to 210 °C. In addition, the IC50 in series [1] (Homo sapiens, A549, mean ± SD) is 251 ± 45.9 µM. In series [2], the IC50 is over 500 µM.
The compound `CN(C)c1ccc(C=NNC(=O)CSc2nc3cc(Cl)ccc3o2)cc1` [Compound 3a, N′-(4-Dimethylaminobenzylidene)-2-[(5-chlorobenzoxazol-2-yl)thio]acetohydrazide] yielded a melting point of 197 to 199 °C. Further, in the series on A549 cells, the “early apoptosis (%)” value was determined as 11.22%, the “late apoptosis (%)” value was determined as 4.97% and the “necrosis (%)” value was found to be 0.79%. For the same compound, in series [1] (Homo sapiens, A549, mean ± SD), the IC50 was found to be 91.4 ± 21.9 µM. Besides, in series [2], the half-inhibitory concentration (IC50) is over 500 µM. The same compound came in with an Akt inhibition in the series with Akt (A549 cells, at 91.35 μM) of 35.40 ± 13.36%.
On to `O=C(CSc1nc2cc(Cl)ccc2o1)NN=Cc1ccc(N2CCCC2)cc1` [Compound 3h, N′-[4-(Pyrrolidin-1-yl)benzylidene]-2-[(5-chlorobenzoxazol-2-yl)thio]acetohydrazide], for which the melting point was in the range of 206 to 207 °C. Moreover, the IC50 in series [1] (Homo sapiens, A549, mean ± SD) was over 500 µM. For the same compound, the IC50 in series [2] is over 500 µM.
Compound `NNC(=O)CSc1nc2cc(Cl)ccc2o1` [Compound 2, 2-[(5-Chlorobenzoxazol-2-yl)thio]acetohydrazide] showed a melting point of 159 to 161 °C. Also, the half-inhibitory concentration (IC50) in series [1] (Homo sapiens, A549, mean ± SD) was over 500 µM. For the same compound, the concentration for half-maximal inhibition (IC50) in series [2] was over 500 µM.
`CN1CCN(c2ccc(C=NNC(=O)CSc3nc4cc(Cl)ccc4o3)cc2)CC1` [Compound 3g, N′-[4-(4-Methylpiperazin-1-yl)benzylidene]-2-[(5-chlorobenzoxazol-2-yl)thio]acetohydrazide] registered a melting point of 178 to 179 °C. In addition, in the series on A549 cells, the “early apoptosis (%)” value is reported as 7.13%, the “late apoptosis (%)” value is given as 12.17% and the “necrosis (%)” value worked out at 0.78%. In addition, the IC50 in series [1] (Homo sapiens, A549, mean ± SD) turned out to be 46.6 ± 6.15 µM. In series [2], the IC50 was determined as 277 ± 28.9 µM. The “inhibitory effect on Akt (in words)” value in the series on Akt (A549 cells, 11.65, 23.30 and 46.60 μM) was “did not exert any inhibitory effect”.
In turn, `O=C(CSc1nc2cc(Cl)ccc2o1)NN=Cc1ccc(-n2cncn2)cc1` [Compound 3j, N′-[4-(1H-1,2,4-Triazol-1-yl)benzylidene]-2-[(5-chlorobenzoxazol-2-yl)thio]acetohydrazide] registered a melting point of 256 to 257 °C. Further, the IC50 in series [1] (Homo sapiens, A549, mean ± SD) was over 500 µM. The IC50 in series [2] was over 500 µM.
As to `O=C(CSc1nc2cc(Cl)ccc2o1)NN=Cc1ccc(-n2ccnc2)cc1` [Compound 3i, N′-[4-(1H-Imidazol-1-yl)benzylidene]-2-[(5-chlorobenzoxazol-2-yl)thio]acetohydrazide], the melting point lay within 229 to 231 °C. Further, in the series on A549 cells, the “early apoptosis (%)” value is 2.70%, the “late apoptosis (%)” value was 6.04% and the “necrosis (%)” value is 3.51%. In addition, the IC50 in series [1] (Homo sapiens, A549, mean ± SD) was 83.6 ± 7.3 µM. Also, the half-maximal inhibitory concentration (IC50) in series [2] is over 500 µM. Further, in the series with Akt, the half-maximal inhibitory concentration (IC50) was 69.5 ± 1.48 µM.
`O=C(CSc1nc2cc(Cl)ccc2o1)NN=Cc1ccc([N+](=O)[O-])cc1` [Compound 3d, N′-(4-Nitrobenzylidene)-2-[(5-chlorobenzoxazol-2-yl)thio]acetohydrazide] showed a melting point of 237 to 239 °C. Also, in series [1] (Homo sapiens, A549, mean ± SD), the 50% inhibitory concentration (IC50) is over 500 µM. In series [2], the IC50 was over 500 µM.
The compound `O=C(CSc1nc2cc(Cl)ccc2o1)NN=Cc1ccc(N(CCCl)CCCl)cc1` [Compound 3c, N′-[4-(Bis(2-chloroethyl)amino)benzylidene]-2-[(5-chlorobenzoxazol-2-yl)thio]acetohydrazide] gave a melting point of 155 to 156 °C. Also, the IC50 in series [1] (Homo sapiens, A549, mean ± SD) was over 500 µM. Further, in series [2], the IC50 is over 500 µM.

The values above are taken from article PMC10249096, “Design, Synthesis, and Evaluation of a New Series of Hydrazones as Small-Molecule Akt Inhibitors for NSCLC Therapy” (ACS Omega, 2023).
